This note sets out measurements from BindingDB's records for patent US8962648 (Oncotherapy Science, 2015).

The term IC50 denotes the point on the concentration scale where inhibition reaches its midpoint.

Molecules are shown by their SMILES. “And” between values parts separate entries of the source, which are not always exact repeats. Equal entries are not always repeated.

In this assay the target is T1, Lymphokine-activated killer T-cell-originated protein kinase (Homo sapiens, UniProt Q96KB5).
T1 sequence (Q96KB5 whole entry): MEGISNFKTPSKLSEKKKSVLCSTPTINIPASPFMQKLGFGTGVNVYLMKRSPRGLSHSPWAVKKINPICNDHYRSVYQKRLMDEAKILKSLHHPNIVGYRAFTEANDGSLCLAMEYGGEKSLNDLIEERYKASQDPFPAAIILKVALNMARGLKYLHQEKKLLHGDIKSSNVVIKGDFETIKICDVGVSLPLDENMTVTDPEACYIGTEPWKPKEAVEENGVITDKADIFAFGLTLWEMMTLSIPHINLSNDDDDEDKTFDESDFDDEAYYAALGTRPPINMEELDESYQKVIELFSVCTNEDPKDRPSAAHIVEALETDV
Nature of the assay: Kinase Assay. Particulars: pH 7.4; 25 °C. The procedure:
PBK activity was determined in the presence or absence of compounds using fluorescein isothiocyanate-labeled (FITC-labeled) histone H3 peptide as a substrate. […] The serially diluted compounds, 0.8 ng/micro-L PBK (Carna Biosciences) and 100 nM FITC-labeled histone H3 peptide were reacted in a reaction buffer (20 mM HEPES, 0.01% Tween-20, 0.3 mM MgCl2, 2 mM dithiothreitol, 50 micro-M ATP, pH 7.4) at room temperature for 1 hour. The reaction was stopped by the addition of three fold assay volume of progressive binding solution. Following 0.5 hour incubation at room temperature.
On to `CC[C@@H](N)c1ccc(-c2c(O)cc(Br)c3[nH]c(=O)c4sccc4c23)cc1` [US8962648, 1150], for which inhibition was half-maximal at 47 nM (IC50).
Under `Cc1cc(O)c(-c2ccc(C3(CN)CC3)cc2)c2c1[nH]c(=O)c1sccc12` [US8962648, 1254] stands 9.6 nM; under `CC[C@@H](c1ccc(-c2c(O)ccc3[nH]c(=O)c4sccc4c23)cc1)N(C)C` [US8962648, 1128], 2.2 nM.
Molecule `CC(C)NCc1ccc(-c2c(O)ccc3[nH]c(=O)c4sccc4c23)cc1` [US8962648, 229] had an IC50 of 4.2 nM.
`CC[C@@H](N)c1ccc(-c2c(O)cc(C)c3[nH]c(=O)c4sccc4c23)cc1` [US8962648, 1157] returned an IC50 of 18 nM.
Under `COc1cc(C)c2[nH]c(=O)c3sccc3c2c1-c1ccc(CCN)c(Cl)c1` [US8962648, 1263] stands 33 nM; under `Cc1cc(O)c(-c2ccc(C(C)CS(N)(=O)=O)cc2)c2c1[nH]c(=O)c1sccc12` (configuration not stated) [US8962648, 1419], 82 nM; under `CC(C)(CN)c1ccc(-c2c(O)cc(Br)c3[nH]c(=O)c4sccc4c23)cc1` [US8962648, 1247], 72 nM.
`Cc1cc(-c2c(O)ccc3[nH]c(=O)c4sccc4c23)ccc1NS(C)(=O)=O` [US8962648, 254] returned an IC50 of 3 nM.
Turning to `C[C@H](c1ccc(-c2c(O)ccc3[nH]c(=O)c4sccc4c23)cc1)N(C)C` [US8962648, 272], half-maximal inhibition (IC50) was put at 0.88 nM.
Then `NCc1ccc(-c2c(O)ccc3[nH]c(=O)c4sccc4c23)cc1` [US8962648, 73], with 0.63 nM and 0.38 nM; and `O=c1[nH]c2ccc(O)c(-c3ccc(S(=O)(=O)NCCCl)cc3)c2c2ccsc12` [US8962648, 332], with 23 nM.
Turning to `CC(CBr)NS(=O)(=O)c1ccc(-c2c(O)ccc3[nH]c(=O)c4sccc4c23)cc1` (configuration not stated) [US8962648, 1062], inhibition was half-maximal at 31 nM (IC50).
`N#CC1(c2ccc(-c3c(O)ccc4[nH]c(=O)c5sccc5c34)cc2)CC1` [US8962648, 361] gave an IC50 of 32 nM.
Consider `CN(C)CCc1ccc(-c2c(O)ccc3[nH]c(=O)c4sccc4c23)cc1` [US8962648, 93], for which the IC50 worked out at 5.4 nM.
`NCc1ccc(-c2c(O)cc(F)c3[nH]c(=O)c4sccc4c23)cc1` [US8962648, 256] registered an IC50 of 2.5 nM.
Molecule `CC(NC1CCCC1)c1ccc(-c2c(O)ccc3[nH]c(=O)c4sccc4c23)cc1` (configuration not stated) [US8962648, 314] had an IC50 of 2.8 nM.
Turning to `NCC1(c2ccc(-c3c(O)cc(Br)c4[nH]c(=O)c5sccc5c34)cc2)CC1` [US8962648, 1401], the IC50 turned out to be 51 nM.
As for `CC(=O)Oc1ccc2[nH]c(=O)c3sccc3c2c1-c1ccc(C(C)N)cc1` (configuration not stated) [US8962648, 1099], the IC50 was 33 nM.
Take `CS(=O)(=O)Nc1ccc(-c2c(O)ccc3[nH]c(=O)c4sccc4c23)cc1` [US8962648, 77]: the midpoint of inhibition, the IC50, lay at 2.6 nM.
Take `CCC(CC)(CN)c1ccc(-c2c(O)ccc3[nH]c(=O)c4sccc4c23)cc1` [US8962648, 1209]: the IC50 amounted to 1.8 nM.
In turn, `CC(O)c1ccc(-c2c(O)ccc3[nH]c(=O)c4sccc4c23)cc1` (configuration not stated) [US8962648, 313] returned an IC50 of 2 nM.
`CNCc1ccc(-c2c(O)ccc3[nH]c(=O)c4sccc4c23)cc1` [US8962648, 187] came in with an IC50 of 0.9 nM.
In the case of `COc1ccc2[nH]c(=O)c3sccc3c2c1-c1ccc(C(C)N2CCCC2)cc1` (configuration not stated) [US8962648, 216], the IC50 came out at 21 nM.
`O=c1[nH]c2ccc(O)c(-c3ccc4cn[nH]c4c3)c2c2ccsc12` [US8962648, 61] registered an IC50 of 3.5 nM.
`NC1Cc2ccc(-c3c(O)ccc4[nH]c(=O)c5sccc5c34)cc2C1` (configuration not stated) [US8962648, 345] displayed an IC50 of 1.2 nM.
`CN[C@@H](C)c1ccc(-c2c(O)cc(Cl)c3[nH]c(=O)c4sccc4c23)cc1` [US8962648, 1087] displayed a half-maximal inhibitory concentration (IC50) of 19 nM.
In turn, `CCC(c1ccc(-c2c(O)ccc3[nH]c(=O)c4sccc4c23)cc1)N(C)C` (configuration not stated) [US8962648, 339] returned an IC50 of 1.9 nM.
`CC(c1ccc(-c2c(O)ccc3[nH]c(=O)c4sccc4c23)cc1F)N(C)C` (configuration not stated) [US8962648, 349]: the half-maximal inhibitory concentration (IC50) came to 1.9 nM.
On to `NCC1(c2ccc(-c3c(O)cc(Cl)c4[nH]c(=O)c5sccc5c34)cc2)CC1` [US8962648, 1116], for which the concentration for half-maximal inhibition (IC50) stood at 22 nM.
The molecule `CC(N)c1ccc(-c2c(O)ccc3[nH]c(=O)c4sccc4c23)cc1` (configuration not stated) [US8962648, 195] yielded a half-inhibitory concentration (IC50) of 0.73 nM.
`O=c1[nH]c2ccc(O)c(-c3ccc4c(c3)CNCC4)c2c2ccsc12` [US8962648, 353] returned an IC50 of 2 nM.
`CC(N)Cc1ccc(-c2c(O)ccc3[nH]c(=O)c4sccc4c23)cc1` (configuration not stated) [US8962648, 1095]: the IC50 was 1.3 nM.
The molecule `CC(c1ccc(-c2c(O)ccc3[nH]c(=O)c4sccc4c23)cc1)N1CCCC1` (configuration not stated) [US8962648, 194] had a half-inhibitory concentration (IC50) of 2.8 nM.
Then `COc1cc(C)c2[nH]c(=O)c3sc(Cl)cc3c2c1-c1ccc([C@@H](C)CN)cc1` [US8962648, 1354], with 11 nM; and `CNCc1ccc(-c2c(OC)ccc3[nH]c(=O)c4sccc4c23)cc1` [US8962648, 188], with 7.8 nM; and `N[C@H]1CCN(c2ccc3[nH]c(=O)c4sc(-c5ccc(O)cc5)cc4c3c2)C1` [US8962648, 51], with 78 nM.
For the molecule `Cc1cc(O)c(-c2ccc(C(C)(C)N)cc2)c2c1[nH]c(=O)c1sccc12` [US8962648, 1330], inhibition was half-maximal at 8.3 nM (IC50).
As to `CCN[C@H](CC)c1ccc(-c2c(O)ccc3[nH]c(=O)c4sccc4c23)cc1` [US8962648, 1127], the IC50 was found to be 1.4 nM.
For `CN(C)Cc1ccc(-c2c(O)ccc3[nH]c(=O)c4sccc4c23)cc1` [US8962648, 165], it took 6.9 nM to reach half-maximal inhibition (IC50).
Molecule `CNC[C@@H](C)c1ccc(-c2c(O)cc(C)c3[nH]c(=O)c4sccc4c23)cc1` [US8962648, 1215] gave a 50% inhibitory concentration (IC50) of 60 nM.
The molecule `CCNCc1ccc(-c2c(OC)ccc3[nH]c(=O)c4sccc4c23)cc1` [US8962648, 269] returned a concentration for half-maximal inhibition (IC50) of 6 nM.
In turn, `COc1ccc2[nH]c(=O)c3sccc3c2c1-c1ccc(C(C)CN)cc1` (configuration not stated) [US8962648, 373] yielded a half-inhibitory concentration (IC50) of 3.2 nM.
As to `CN(C)CC1(c2ccc(-c3c(O)ccc4[nH]c(=O)c5sccc5c34)cc2)CC1` [US8962648, 379], the IC50 is 3.6 nM.
Molecule `Cc1cc2c(s1)c(=O)[nH]c1c(C)cc(O)c(-c3ccc([C@@H](C)CN)cc3)c12` [US8962648, 1340] registered an IC50 of 12 nM.
Take `Cc1cc(O)c(-c2ccc([C@@H](C)CN)cc2)c2c1[nH]c(=O)c1sc(F)cc12` [US8962648, 1383]: half-maximal inhibition (IC50) required 3.7 nM.
For `C[C@@H](NS(C)(=O)=O)c1ccc(-c2c(O)ccc3[nH]c(=O)c4sccc4c23)cc1` [US8962648, 301], half-maximal inhibition (IC50) was put at 3.2 nM.
`CC[C@H](NC)c1ccc(-c2c(O)ccc3[nH]c(=O)c4sccc4c23)cc1` [US8962648, 1148] came in with an IC50 of 1.3 nM.
Then `CC[C@H](c1ccc(-c2c(O)ccc3[nH]c(=O)c4sccc4c23)cc1)N(C)C` [US8962648, 1151], with 2.5 nM; and `COc1cc(Cl)c2[nH]c(=O)c3sccc3c2c1-c1ccc(C2(CN)CCC2)cc1` [US8962648, 1321], with 96 nM.
Under `COc1ccc2[nH]c(=O)c3sccc3c2c1/C=C/CN1CCC(N)CC1` [US8962648, 152] stands 31 nM.
`CN[C@H](C)c1ccc(-c2c(O)cc(Br)c3[nH]c(=O)c4sccc4c23)cc1` [US8962648, 1135] returned an IC50 of 30 nM.
With `COc1cc(F)c2[nH]c(=O)c3sccc3c2c1-c1ccc(CN)cc1` [US8962648, 257], the IC50 was 26 nM.
Under `N#CCc1ccc(-c2c(O)ccc3[nH]c(=O)c4sccc4c23)cc1F` [US8962648, 261] stands 15 nM; under `CC(c1ccc(-c2c(O)ccc3[nH]c(=O)c4sccc4c23)cc1)N1CCCCC1` (configuration not stated) [US8962648, 262], 4.3 nM.
`COc1cc(Cl)c2[nH]c(=O)c3sccc3c2c1-c1ccc(CCN)c(F)c1` [US8962648, 1218] had an IC50 of 87 nM.
Under `CNC[C@H](C)c1ccc(-c2c(OC)ccc3[nH]c(=O)c4sccc4c23)cc1` [US8962648, 1189] stands 3 nM; under `CC(NS(C)(=O)=O)c1ccc(-c2c(O)ccc3[nH]c(=O)c4sccc4c23)cc1` (configuration not stated) [US8962648, 347], 3.7 nM and 2 nM.
Then `CN[C@@H](C)c1ccc(-c2c(O)ccc3[nH]c(=O)c4sccc4c23)cc1` [US8962648, 1082], with 1.1 nM; and `CCN(CC)CCNCCCOc1ccc(-c2c(OC)ccc3[nH]c(=O)c4sccc4c23)cc1` [US8962648, 145], with 47 nM; and `CCC(C#N)c1ccc(-c2c(O)ccc3[nH]c(=O)c4sccc4c23)cc1` (configuration not stated) [US8962648, 1162], with 13 nM.
Molecule `CN(C)C1CCCN(CCCc2c(O)ccc3[nH]c(=O)c4sccc4c23)C1` (configuration not stated) [US8962648, 298] returned an IC50 of 83 nM.
Turning to `CCC(CN)c1ccc(-c2c(OC)cc(C)c3[nH]c(=O)c4sccc4c23)cc1` (configuration not stated) [US8962648, 1277], half-maximal inhibition (IC50) required 63 nM.
Consider `C[C@@H](N)c1ccc(-c2c(O)cc(Br)c3[nH]c(=O)c4sccc4c23)cc1` [US8962648, 1123], for which the IC50 amounted to 33 nM.
With `NCCc1ccc(-c2c(O)ccc3[nH]c(=O)c4sccc4c23)cc1` [US8962648, 176], the IC50 was 1.2 nM and 1.1 nM.
Turning to `CC(=O)c1ccc(-c2c(O)ccc3[nH]c(=O)c4sccc4c23)cc1` [US8962648, 296], 23 nM corresponded to half-maximal inhibition (IC50).
With `CCC(CN)c1ccc(-c2c(O)cc(C)c3[nH]c(=O)c4sccc4c23)cc1` (configuration not stated) [US8962648, 1291], half-maximal inhibition (IC50) required 15 nM.
